# Source: patent US8415272B2, “Quinoline derivatives and their use as fungicides” (Syngenta Crop Protection LLC, priority 2008, dated 2013)
# Columns and labels:
# Septoria nodorum = test: Leaf disk assay, Septoria nodorum (wheat glume blotch), preventive; assay type: in vivo; settings: Parastagonospora nodorum, foliar, 96 h, wheat leaf segments, assessed four days after inoculation, read-out: control of fungal infection, Septoria nodorum
# Phytophthora infestans = test: whole plant or invertebrate; assay type: in vivo; settings: in Solanum lycopersicum, foliar, 96 h, read-out: control of fungal infection, Phytophthora infestans
# Plasmopara viticola = test: Leaf disk assay, Plasmopara viticola (downy mildew of grapevine), preventive; assay type: in vivo; settings: foliar, 168 h, grapevine leaf disks, assessed seven days after inoculation, read-out: control of fungal infection, Plasmopara viticola
# Pythium ultimum = test: Growth inhibition in potato dextrose broth, Pythium ultimum (damping off), photometric; assay type: cell-based; settings: Globisporangium ultimum, 24° C., 48 hours, read-out: control of fungal infection, Pythium ultimum
# Summary of the method: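 Growth inhibition was read photometrically at 48 hours after incubation at 24° C. Test compound was diluted from DMSO to 20 ppm in water and combined with potato dextrose broth seeded with Pythium ultimum mycelial fragments.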
# [1] = tested on: Erysiphe graminis f.sp. tritici; test: Leaf disk assay, Erysiphe graminis f.sp. tritici (wheat powdery mildew), preventive; assay type: in vivo; settings: Blumeria graminis, foliar, 96 h, wheat leaf segments, assessed four days after inoculation, read-out: control of fungal infection, Erysiphe graminis f.sp. tritici
# Summary of the method: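 Preventive protocol: compound at 200 ppm in water (from DMSO) sprayed onto wheat leaf segments on agar, dried 12–24 h, then spore-inoculated. Fungicidal activity was assessed four days post-inoculation.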
# Pyricularia oryzae = test: whole plant or invertebrate; assay type: in vivo; settings: foliar, 96 h, read-out: control of fungal infection, Pyricularia oryzae
# Septoria tritici = test: Growth inhibition in nutrient broth, Septoria tritici (leaf blotch), photometric; assay type: cell-based; settings: Zymoseptoria tritici, PDB broth, 24 C, 72 hrs, read-out: control of fungal infection, Septoria tritici
# [2] = tested on: Puccinia recondita f.sp. tritici; test: Leaf disk assay, Puccinia recondita f.sp. tritici (wheat brown rust), preventive; assay type: in vivo; settings: foliar, 216 h, wheat leaf segments, assessed nine days after inoculation, read-out: control of fungal infection, Puccinia recondita f.sp. tritici
# Fusarium culmorum = test: Growth inhibition in nutrient broth, Fusarium culmorum (root rot), photometric; assay type: cell-based; settings: 48 h, read-out: control of fungal infection, Fusarium culmorum
# Summary of the method: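 Fusarium culmorum conidia in potato dextrose broth were added to compounds in DMSO. Plates were incubated at 24 C for 48 hrs, with growth inhibition read photometrically. […]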
# Botrytis cinerea = test: Leaf disk assay, Botrytis cinerea (grey mould) on bean, preventive; assay type: in vivo; settings: foliar, 96 h, bean leaf disks, assessed four days after inoculation, read-out: control of fungal infection, Botrytis cinerea
# Pyrenophora teres = test: Leaf disk assay, Pyrenophora teres (barley net blotch), preventive; assay type: in vivo; settings: foliar, 96 h, barley leaf segments, assessed four days after inoculation, read-out: control of fungal infection, Pyrenophora teres
# Protocol: The compounds were tested in a leaf disk assay, with methods described below. The test compounds were dissolved in DMSO and diluted into water to 200 ppm. In the case of the test on Pythium ultimum, they were dissolved in DMSO and diluted into water to 20 ppm. Pyrenophora teres (barley net blotch): Barley leaf segments were placed on agar in a 24-well plate and sprayed with a solution of the test compound. After allowing to dry completely, for between 12 and 24 hours, the leaf disks were inoculated with a spore suspension of the fungus. After appropriate incubation the activity of a compound was assessed four days after inoculation as preventive fungicidal activity.
Structure (SMILES),melting point [°C],pest or weed control at 200 ppm (Septoria nodorum) [%],pest or weed control at 200 ppm (Phytophthora infestans) [%],pest or weed control at 200 ppm (Plasmopara viticola) [%],inhibition of growth at 20 ppm (Pythium ultimum) [%],pest or weed control at 200 ppm [1] [%],pest or weed control at 200 ppm (Pyricularia oryzae) [%],inhibition of growth at 60 ppm (Septoria tritici) [%],pest or weed control at 200 ppm [2] [%],inhibition of growth at 60 ppm (Fusarium culmorum) [%],pest or weed control at 200 ppm (Botrytis cinerea) [%],pest or weed control at 200 ppm (Pyrenophora teres) [%]
"C#Cc1cnc2ccc(OC(SC)C(=O)N(O)C(C)(C)C)cc2c1 (stereo not shown) [Compound 147, N-tert-Butyl-2-(3-ethynyl-quinolin-6-yloxy)-N-hydroxy-2-methylsulfanyl-acetamide]",164,,,,,,,,,,,
"C#Cc1cnc2ccc(OC(SC)C(=O)NC(C)(C#C)CO)cc2c1 (stereo not shown) [Compound 160, 2-(3-ethynyl-quinolin-6-yloxy)-N-(1-hydroxymethyl-1-methylprop-2-ynyl)-2-methylsulfanyl-acetamide]",149 to 150,,,,,,,,,,,
"C#Cc1cnc2ccc(OC(SC)C(=O)NC(C)(C)CO)cc2c1 (stereo not shown) [Compound 168, 2-(3-ethynyl-quinolin-6-yloxy)-N-(2-hydroxy-1,1-dimethyl-ethyl)-2-methylsulfanyl-acetamide]",149 to 151,,,,,,,,,,,
"C#Cc1cnc2ccc(OC(SC)C(=O)NC(C)(C#C)CO)cc2c1 (stereo not shown) [Compound 173, 2-(3-Ethynyl-quinolin-6-yloxy)-N-(1-hydroxymethyl-1-methyl-prop-2-ynyl)-2-methylsulfanyl-acetamide]",150 to 155,,,,,,,,,,,
"C#Cc1cnc2cc(F)c(OC(SC)C(=O)NC(C)(C#N)CO)cc2c1 (stereo not shown) [Compound 174, N-(1-Cyano-2-hydroxy-1-methyl-ethyl)-2-(3-ethynyl-7-fluoro-quinolin-6-yloxy)-2-methylsulfanyl-acetamide]",80 to 83,,,,,,,,,,,
"C#Cc1cnc2ccc(OC(SC)C(=O)NC3COC3)cc2c1 (stereo not shown) [Compound 178, 2-(3-Ethynyl-quinolin-6-yloxy)-2-methylsulfanyl-N-oxetan-3-yl-acetamide]",98 to 100,,,,,,,,,,,
"C#Cc1cnc2ccc(OC(SC)C(=O)NC3(C)COC3)cc2c1 (stereo not shown) [Compound 186, 2-(3-Ethynyl-quinolin-6-yloxy)-N-(3-methyl-oxetan-3-yl)-2-methylsulfanyl-acetamide]",61 to 65,,,,,,,,,,,
"C#Cc1cnc2c(Cl)cc(OC(SC)C(=O)NC3(C)CCC3)cc2c1 (stereo not shown) [Compound 203, 2-(8-Chloro-3-ethynyl-quinolin-6-yloxy)-N-(1-methyl-cyclobutyl)-2-methylsulfanyl-acetamide]",121 to 123,,,,,,,,,,,
"C#Cc1cnc2c(F)cc(OC(SC)C(=O)NC(C)C)cc2c1 (stereo not shown) [Compound 222, 2-(3-Ethynyl-8-fluoro-quinolin-6-yloxy)-N-isopropyl-2-methylsulfanyl-acetamide]",135 to 136,,,,,,,,,,,
"C#Cc1cnc2ccc(OC(SC)C(=O)NC3CSC3)cc2c1 (stereo not shown) [Compound 223, 2-(3-Ethynyl-quinolin-6-yloxy)-2-methylsulfanyl-N-thietan-3-yl-acetamide]",150 to 152,,,,,,,,,,,
"C#Cc1cnc2ccc(OC(SC)C(=O)NC3(C)CSC3)cc2c1 (stereo not shown) [Compound 224, 2-(3-Ethynyl-quinolin-6-yloxy)-2-methylsulfanyl-N-(3-methyl-thietan-3-yl)-acetamide]",132 to 134,,,,,,,,,,,
C#Cc1cnc2cc(F)c(OC(SC)C(=O)NC(C)(C#N)COC)cc2c1 (stereo not shown) [Example 6],,≥ 60,≥ 60,≥ 60,≥ 60,≥ 60,≥ 60,≥ 60,≥ 60,,,
C#Cc1cnc2c(C)cc(OC(SC)C(=O)NC(C)(C#N)COC)cc2c1 (stereo not shown) [Example 12],,≥ 60,≥ 60,≥ 60,≥ 60,≥ 60,≥ 60,≥ 60,≥ 60,,,
"C#CCOCC(C)(COCC#C)NC(=O)C(Oc1ccc2ncc(C#C)cc2c1)SC (stereo not shown) [Example 12c, 2-(3-ethynyl-quinolin-6-yloxy)-N-(1-methyl-2-prop-2-ynyloxy-1-prop-2-ynyloxymethyl-ethyl)-2-methylsulfanyl-acetamide]",95 to 100,,,,,,,,,,,
"C#Cc1cnc2ccc(OC(SC)C(=O)NC(C)(C#N)CO)cc2c1 (stereo not shown) [Example 12d, N-(1-cyano-2-hydroxy-1-methyl-ethyl)-2-(3-ethynyl-quinolin-6-yloxy)-2-methylsulfanyl-acetamide]",78 to 80,,,,,,,,,,,
C#Cc1cnc2c(C)cc(OC(SC)C(=O)NC(C)(C)CO)cc2c1 (stereo not shown) [Example 15],,≥ 60,≥ 60,≥ 60,≥ 60,,≥ 60,≥ 60,,,,
C#Cc1cnc2c(Cl)cc(OC(SC)C(=O)NC(C)(C)C#CC)cc2c1 (stereo not shown) [Example 20],,≥ 60,≥ 60,≥ 60,≥ 60,≥ 60,,≥ 60,≥ 60,≥ 60,≥ 60,≥ 60
C#CCOCC(C)(C)NC(=O)C(Oc1ccc2ncc(C#C)cc2c1)SC (stereo not shown) [Example 30],,≥ 60,≥ 60,≥ 60,≥ 60,≥ 60,,≥ 60,≥ 60,≥ 60,≥ 60,≥ 60
C#CCC(C)(C)NC(=O)C(Oc1ccc2ncc(C#C)cc2c1)SC (stereo not shown) [Example 31],,≥ 60,≥ 60,≥ 60,≥ 60,≥ 60,,≥ 60,≥ 60,≥ 60,≥ 60,≥ 60
C#CCOCC#CC(C)(C)NC(=O)C(Oc1cc(Cl)c2ncc(C#C)cc2c1)SC (stereo not shown) [Example 63],,≥ 60,≥ 60,≥ 60,≥ 60,≥ 60,,≥ 60,≥ 60,,≥ 60,≥ 60
C#Cc1cnc2cc(F)c(OC(SC)C(=O)NC(C)(C)C#CCOC)cc2c1 (stereo not shown) [Example 66],,≥ 60,≥ 60,≥ 60,≥ 60,≥ 60,,≥ 60,≥ 60,≥ 60,≥ 60,≥ 60
C#Cc1cnc2c(Br)cc(OC(SC)C(=O)NC(C)(C)C#CCOC)cc2c1 (stereo not shown) [Example 70],,≥ 60,≥ 60,≥ 60,≥ 60,≥ 60,,≥ 60,≥ 60,,≥ 60,≥ 60
C#CCOCCC(C)(C#N)NC(=O)C(Oc1ccc2ncc(C#C)cc2c1)SC (stereo not shown) [Example 72],,≥ 60,≥ 60,≥ 60,≥ 60,≥ 60,,≥ 60,≥ 60,,≥ 60,≥ 60
C#CCC(C)(C)NC(=O)C(Oc1cc(Cl)c2ncc(C#C)cc2c1)SC (stereo not shown) [Example 75],,≥ 60,≥ 60,≥ 60,≥ 60,≥ 60,,≥ 60,≥ 60,≥ 60,≥ 60,≥ 60
